From patent US5492906A, “Derivatives of thieno-triazolo-diazepine and therapeutic compositions containing them” (Societe de Conseils de Recherches et d'Applications …, priority 1989, dated 1996)

Columns and labels:
benzodiazepine receptors = test: Inhibition of the binding to benzodiazepine receptors (rat brains); conditions: rat brains incubated 1 h 30 at 4° C.; 3H-RO-15-4788 and 3H-RO-5-4864 as tracers; Table I; read-out: BDZ receptors (inhibition of the binding to benzodiazepine receptors)
Excerpt: 2) Inhibition of the binding to benzodiazepine receptors
The interest of the previous experimentation depends on the results obtained in this experimentation: as a compound of the invention has a benzodiazepine like structure, it is important to check whether the specific benzodiazepine activity would not appear at the dose where platelet agregation was inhibited.
Therefore, this experimentation has been conducted according to the method of MOHLER H. and RICHARD J. G. Agonist and antagonist benzodiazepine receptor intereaction in vitro, Nature, vol. 294, 763°-765, 1981.
This experimentation was conducted on rat brains incubated 1 h 30 at 4° C. using ^3 H-RO-15-4788 and ^3 H-RO-5-4864 (NEN) as tracers and […] and RO-5-4864 as reference antagonists.
The results in molecular concentration are reported in the table I, on the right hand column.

[1] = tested on: platelet agregation induced by PAF; test: Inhibition of platelet agregation induced by PAF; assay type: cell-based, New Zealand rabbits; conditions: Oryctolagus cuniculus, New Zealand rabbit platelets, agregometer at 57° C., Table I
Procedure: 1) Inhibition of platelet agregation induced by PAF
This experimentation was conducted according to the method of R. KINLOUGH. RATHBONE, J. P. CAZENAVE, M. PACKHAM and F. MUSTARD, Lab. Invest. 48, 98, 1980. In this test, New Zealand rabbits were used (male New Zealand rabbits of an average weight of 5 kg).
The determinations are made on a chrono-log Coultronics agregometer, at […] coupled with a graphic recorder; the results of these determinations (in molecular concentration) are reported on the table I on the central column.

## Cc1nnc2n1-c1sc3c(c1C(c1ccccc1Cl)=NC2)CCN(C(=S)Nc1ccc(C(C)(C)C)cc1)C3 [Example 11, 6-(2-chlorophenyl)-9-(4-tertbutyl)phenylthiocarbamoyl-4H-pyrido[4',3':4,5]thieno [3,2-f]1,2,4-triazolo[4,3-a]1,4-diazepine]
Benzodiazepine receptors
  IC50: 1200 nM
[1]
  IC50: 9.44 nM

## Cc1nnc2n1-c1sc3c(c1C(c1ccccc1Cl)=NC2)CCN(C(=O)NS(=O)(=O)c1cccs1)C3 [Example 32, 6-(2-chlorophenyl)-9-(2-thienylsulfonyl)carbamoyl-7,8,9,10-tetrahydro-1-methyl-4H-pyrido[4',5':4,5]thieno[3,2-f]1,2,4-triazolo[4,3-a]1,4-diazepine]
Benzodiazepine receptors
  IC50: 4330 nM
[1]
  IC50: 66.6 nM

## COc1cc(NC(=S)N2CCc3c(sc4c3C(c3ccccc3Cl)=NCc3nnc(C)n3-4)C2)cc(OC)c1OC [Example 9, 6-(2-chlorophenyl)-9-(3,4,5-trimethoxy)phenylthiocarbamoyl-7,8,9,10-tetrahydro-1-methyl 4H-pyrido[4',3':4,5]thieno [3,2-f]1,2,4-triazolo[4,3-a]1,4-diazepine]
Benzodiazepine receptors
  IC50: 4500 nM
[1]
  IC50: 38.7 nM

## Cc1nnc2n1-c1sc3c(c1C(c1ccccc1Cl)=NC2)CCN(C(=S)NS(=O)(=O)c1ccnc2ccccc12)C3 [Example 35, 6-(2-chlorophenyl)-9-(4-quinolylsulfonyl)thiocarbamoyl-7,8,9,10-tetrahydro-1-methyl-4H-pyrido[4',3':4,5]thieno [3,2-f]1,2,4-triazolo[4,3-a]1,4-diazepine]
Benzodiazepine receptors
  IC50: 2200 nM
[1]
  IC50: 34 nM

## Cc1nnc2n1-c1sc3c(c1C(c1ccccc1Cl)=NC2)CCN(C(=O)NC(C)C)C3 [Example 2, 6-(2-chlorophenyl)-9-isopropylcarbamoyl-7,8,9,10-tetra-hydro-1-methyl4H-pyrido[4',3':4,5]thieno[3,2-f]1,2,4-triazolo [4,3-a] 1,4-diazepine]
Benzodiazepine receptors
  IC50: 66000 nM
[1]
  IC50: 23.5 nM

## Cc1nnc2n1-c1sc3c(c1C(c1ccccc1Cl)=NC2)CCN(C(=S)NC(C)Cc1ccccc1)C3 (stereo not drawn) [Example 19, 6-(2-chlorophenyl)-9-(α-methyl)phenethylthiocarbamoyl-7,8,9,10-tetrahydro-1-methyl 4H-pyrido[4',3':4,5]thieno[3,2-f]1,2,4-triazolo[4,3-a]1,4-diazepine]
Benzodiazepine receptors
  IC50: 360 nM
[1]
  IC50: 42.5 nM

## Cc1nnc2n1-c1sc3c(c1C(c1ccccc1Cl)=NC2)CCN(C(=O)NC1CCCCC1)C3 [Example 27, 6-(2-chlorophenyl)-9-cyclohexylcarbamoyl-7,8,9,10-tetrahydro-1-methyl-4H-pyrido[4', 3':4,5]thieno[3,2-f]1,2,4-triazolo[4,3-a]1,4-diazepine]
Benzodiazepine receptors
  IC50: 2000 nM
[1]
  IC50: 45.2 nM

## Cc1nnc2n1-c1sc3c(c1C(c1ccccc1Cl)=NC2)CCN(C(=S)NS(=O)(=O)c1ccco1)C3 [Example 31, 6-(2-chlorophenyl)-9-(2-furylsulfonyl)thiocarbamoyl-7,8,9,10-tetrahydro-1-methyl-4H-pyrido[4',3':4,5]thieno[3,2-f]1,2,4-triazolo[4,3-a]1,4-diazepine]
Benzodiazepine receptors
  IC50: 615 nM
[1]
  IC50: 8.15 nM

## C=CCNC(=S)N1CCc2c(sc3c2C(c2ccccc2Cl)=NCc2nnc(C)n2-3)C1 [Example 28, 6-(2-chlorophenyl)-9-allylthiocarbamoyl-7,8,9,10-tetrahydro-1-methyl-4H-pyrido[4',3':4,5]thieno[3,2-f]1,2,4-triazolo[4,3-a]1,4-diazepine]
Benzodiazepine receptors
  IC50: 140 nM
[1]
  IC50: 9.05 nM

## Cc1nnc2n1-c1sc3c(c1C(c1ccccc1Cl)=NC2)CCN(C(=S)Nc1cccc(C(F)(F)F)c1)C3 [Example 13, 6-(2-chlorophenyl)-9-(3-trifluoromethyl)phenylthiocarbamoyl-7,8,9,10-tetrahydro-1-methyl 4H-pyrido[4',3':4,5]thieno[3,2-f]1,2,4-triazolo[4,3-a]1,4-diazepine]
Benzodiazepine receptors
  IC50: 6250 nM
[1]
  IC50: 171 nM

## Cc1nnc2n1-c1sc3c(c1C(c1ccccc1Cl)=NC2)CCN(C(=O)NS(=O)(=O)c1cccnc1)C3 [Example 34, 6-(2-chlorophenyl)-9-(3-pyridylsulfonyl)carbamoyl-7,8,9,10-tetrahydro-1-methyl-4H-pyrido[4',3':4,5]thieno[3,2-f]1,2,4-triazolo[4,3-a]1,4-diazepine]
Benzodiazepine receptors
  IC50: 40000 nM
[1]
  IC50: 100 nM

## Cc1nnc2n1-c1sc3c(c1C(c1ccccc1Cl)=NC2)CCN(C(=S)Nc1ccc(F)cc1)C3 [Example 16, 6-(2-chlorophenyl)-9-(4-fluoro)phenylthiocarbamoyl-7,8,9,10-tetrahydro-1-methyl 4H-pyrido[4',3':4,5]thieno[3,2-f]1,2,4-triazolo[4,3-a]1,4-diazepine]
Benzodiazepine receptors
  IC50: 700 nM
[1]
  IC50: 64 nM

## Cc1nnc2n1-c1sc3c(c1C(c1ccccc1Cl)=NC2)CCN(C(=S)NCC(C)c1ccccc1)C3 (stereo not drawn) [Example 20, 6-(2-chlorophenyl)-9-(β-methyl)phenethylthiocarbamoyl-7,8,9,10-tetrahydro-1-methyl 4H-pyrido[4',3':4,5]thieno[3,2-f]1,2,4-triazolo[4,3-a]1,4-diazepine]
Benzodiazepine receptors
  IC50: 720 nM
[1]
  IC50: 6.17 nM

## Cc1nnc2n1-c1sc3c(c1C(c1ccccc1Cl)=NC2)CCN(C(=S)Nc1ccccc1C(F)(F)F)C3 [Example 12, 6-(2-chlorophenyl)-9-(2-trifluoromethyl)phenylthiocarbamoyl-7,8,9,10-tetrahydro-1-methyl 4H-pyrido[4',3':4,5]thieno[3,2-f]1,2,4-triazolo[4,3-a]1,4-diazepine]
Benzodiazepine receptors
  IC50: 3500 nM
[1]
  IC50: 171 nM

## COc1ccc(NC(=O)N2CCc3c(sc4c3C(c3ccccc3Cl)=NCc3nnc(C)n3-4)C2)cc1 [Example 6, 6-(2-chlorophenyl)-9-(4-methoxy)phenylcarbamoyl-7,8,9,10-tetrahydro-1-methyl 4H-pyrido[4',3':4,5]thieno[3,2-f]1,2,4-triazolo[4,3-a]1,4-diazepine]
Benzodiazepine receptors
  IC50: 77000 nM
[1]
  IC50: 127 nM

## Cc1nnc2n1-c1sc3c(c1C(c1ccccc1Cl)=NC2)CCN(C(=S)NC(C)(C)C)C3 [Example 4, 6-(2-chlorophenyl)-9-tertbutylthiocarbamoyl-7,8,9,10-tetrahydro-1-methyl4H-pyrido[4',3':4,5]theno [3,2-f]1,2,4-triazolo[4,3-a]1,4-diazepine]
Benzodiazepine receptors
  IC50: 135 nM
[1]
  IC50: 8.82 nM

## Cc1nnc2n1-c1sc3c(c1C(c1ccccc1Cl)=NC2)CCN(C(=O)NCc1ccccc1)C3 [Example 23, 6-(2-chlorophenyl)-9-benzylcarbamoyl-7,8,9,10-tetrahydro-1-methyl-4H-pyrido[4',3':4,5]thieno[3,2-f]1,2,4-triazolo[4,3-a]1,4-diazepine]
Benzodiazepine receptors
  IC50: 1600 nM
[1]
  IC50: 66.8 nM

## Cc1nnc2n1-c1sc3c(c1C(c1ccccc1Cl)=NC2)CCN(C(=S)Nc1ccc(S(C)(=O)=O)cc1)C3 [Example 21, 6-(2-chlorophenyl)-9-(4-methylsulfonyl)phenylthiocarbamoyl-7,8,9,10-tetrahydro-1-methyl 4H-pyrido[4',3':4,5]thieno[3,2-f]1,2,4-triazolo[4,3-a]1,4-diazepine]
Benzodiazepine receptors
  IC50: 1100 nM
[1]
  IC50: 24 nM

## Cc1nnc2n1-c1sc3c(c1C(c1ccccc1Cl)=NC2)CCN(C(=S)Nc1cnc2ccccc2c1)C3 [Example 25, 6-(2-chlorophenyl)-9-(3-quinolyl)thiocarbamoyl-7,8,9,10-tetrahydro-1-methyl-4H-pyrido[4',3':4,5]thieno[3,2-f]1,2,4-triazolo[4,3-a]1,4-diazepine]
Benzodiazepine receptors
  IC50: 350 nM
[1]
  IC50: 182 nM
